Assay results from US11878965B2, “Inhibitors of peptidylarginine deiminases” (Gilead Sciences, Inc., priority 2020, dated 2024).
Blank lines part the entries; values can stand above or below the compound they belong to.

Target: human PAD4 (Homo sapiens (Human), UniProt Q9UM07)
Assay: In Vitro PAD4 BAEE Biochemical Assay
Details: human PAD4, BAEE substrate; 5 nM PAD4, 2 mM calcium chloride, 3 mM BAEE; geometric mean of multiple experiments
Method: The PCR product was ligated into linearized pET-SUMO vector (Invitrogen, Carlsbad, CA), which is part of the Champion™ pET SUMO Protein Expression System. After sequence verification for the correct orientation, the pET-SUMO-hPAD4 expression plasmid was transformed into BL21(DE3) cells.
E. Coli BL21(DE3) cells were inoculated in LB medium with kanamycin at 37° C. until A600 nm reached about 0.5. Protein expression was induced by addition of 0.5 mM IPTG (final) and continued overnight at 16° C. at 220 rpm.
Cells were harvested by centrifugation at 5000 rpm for 10 minutes at 4° C. The pellet was resuspended in 300 ml lysis buffer (20 mM Tris-HCl, pH 8.0, 1 mM EDTA, 500 mM NaCl, 1 mM (tris(2-carboxyethyl)phosphine) (TCEP), 10% glycerol, and 1% Triton X100 and EDTA free protease inhibitor) and lysed by 3× passage through a microfluidizer (Microfluidics, Newton, MA) at 18,000 psi. The cell lysate was clarified by centrifugation at 30,000 rpm for 60 minutes at 4° C. The supernatant was applied to a 5 ml Ni-HP (GE HealthCare Cat #17524701) column preequilibrated in Ni-A buffer (20 mM Tris-HCl, pH 8.0, 20 mM Imidazole, 1 mM TCEP, 10% glycerol, and 400 mM NaCl). Bound protein was eluted with a 0-100% linear gradient of 100 mL Ni-B buffer (Ni A buffer+0.5 M Imidazole).
The His-Sumo tag was cleaved using sumo protease (Thermo Fisher Cat #: 12588018) while dialyzing in buffer (20 mM Tris-HCl, pH 8.0, 1 mM EDTA, 500 mM NaCl, 1 mM TCEP, 10% glycerol). The protein was then reloaded onto a Ni-HP column for a reverse purification step and recovered in flow through fraction. The protein with His-Sumo tag removed was then polished using a 16/60 Superdex-200 gel filtration column with gel filtration buffer (20 mM Tris pH 8.0, NaCl 400 mM and 1 mM TCEP). The fractions containing the protein were pulled and frozen at −80° C.
In Vitro PAD4 BAEE Biochemical Assay
The enzymatic activity of human PAD4 was monitored in a biochemical assay in the presence or absence of compounds using the small peptidyl arginine mimic BAEE (Nα-Benzoyl-L-arginine ethyl ester hydrochloride) as substrate. PAD4 activity led to deimination of BAEE and release of ammonia. Levels of ammonia were monitored by using an amine coupling reaction and were indicative of PAD4 enzymatic activity.
One hundred nanoliters of test compounds dissolved in DMSO at various concentrations were dispensed into a 384-well black OptiPlate using a Labcyte Echo instrument. Ten microliters of a solution of recombinant PAD4 and calcium chloride diluted in PAD4 assay buffer (50 mM MOPS [3-(N-morpholino) propanesulfonic acid], pH 7.6; 50 mM sodium chloride; 0.05% Tween-20; 2 mM dithiothreitol) was added to the compound-containing plate and was incubated for 30 minutes at 25° C. Ten microliters of a solution of BAEE (Sigma-Aldrich #B4500) diluted in PAD4 assay buffer was then added to start the reaction. Final concentrations were 5 nM PAD4, 2 mM calcium chloride, and 3 mM BAEE. The reaction mixture was incubated at 25° C. for 2 hours and was stopped with the addition of 10 microliters of a solution of 75 mM EDTA (Ethylenediaminetetraacetic acid) in PAD4 assay buffer. Thirty microliters of detection solution (5 mM o-phthalaldehyde, 50 mM MOPS [3-(N-morpholino) propanesulfonic acid], pH 7.6; 50 mM sodium chloride; 0.05% Tween-20; 5 mM dithiothreitol) was then added and the reaction was incubated for 1 hour at 25° C. The level of fluorescent thiol-substituted isoindole resulting from the reaction of ammonia, o-phthalaldehyde, and dithiothreitol was measured on an Envision plate reader (PerkinElmer) with 405 nm excitation and 535 nm emission.

Chain of human PAD4 (Q9UM07 2-663): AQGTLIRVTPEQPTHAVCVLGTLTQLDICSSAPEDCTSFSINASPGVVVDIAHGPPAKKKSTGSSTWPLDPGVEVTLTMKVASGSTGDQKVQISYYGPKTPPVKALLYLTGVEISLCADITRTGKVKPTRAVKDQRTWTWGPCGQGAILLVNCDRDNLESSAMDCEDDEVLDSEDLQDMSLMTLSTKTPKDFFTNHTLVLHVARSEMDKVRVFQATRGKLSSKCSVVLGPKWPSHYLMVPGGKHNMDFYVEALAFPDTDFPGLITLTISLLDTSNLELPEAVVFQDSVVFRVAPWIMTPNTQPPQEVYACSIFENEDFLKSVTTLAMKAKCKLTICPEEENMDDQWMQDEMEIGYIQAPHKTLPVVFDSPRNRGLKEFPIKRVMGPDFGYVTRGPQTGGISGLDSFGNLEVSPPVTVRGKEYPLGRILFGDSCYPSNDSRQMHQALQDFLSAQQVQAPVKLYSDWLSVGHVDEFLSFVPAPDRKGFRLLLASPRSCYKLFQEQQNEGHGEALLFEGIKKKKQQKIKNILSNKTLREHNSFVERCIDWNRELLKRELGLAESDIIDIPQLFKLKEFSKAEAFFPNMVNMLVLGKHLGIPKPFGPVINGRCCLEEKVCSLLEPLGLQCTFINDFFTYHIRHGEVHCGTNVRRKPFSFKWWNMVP

SMILES: CCN(c1ccc2cc(-c3nc4cc(C(=O)N5CCC[C@@H](N)[C@H]5C)cc(OC)c4n3CC3(C)CC3)n(CC3CC3)c2n1)S(C)(=O)=O [Example 40, N-(2-(5-((2R,3R)-3-amino-2-methylpiperidine-1-carbonyl)-7-methoxy-1-((1-methylcyclopropyl)methyl)-1H-benzo[d]imidazol-2-yl)-1-(cyclopropylmethyl)-1H-pyrrolo [2,3-b]pyridin-6-yl)-N-ethylmethanesulfonamide]
- IC50: 329 nM

SMILES: [2H][C@]1(N)CCCN(C(=O)c2cc(OC)c3c(c2)nc(-c2cc4ccc(N(C(F)F)S(C)(=O)=O)nc4n2CC2CC2)n3C)C1 [Example 46, (S)-N-(2-(5-(3-aminopiperidine-1-carbonyl-3-d)-7-methoxy-1-methyl-1H-benzo[d]imidazol-2-yl)-1-(cyclopropylmethyl)-1H-pyrrolo[2,3-b]pyridin-6-yl)-N-(difluoromethyl) methanesulfonamide]
- IC50: 1160 nM

SMILES: COc1cc(C(=O)N2CCC[C@@H](N)[C@H]2C)cc2nc(-c3cc4ccc(N(C)S(C)(=O)=O)nc4n3C3CC3)n(C)c12 [Example 47, N-(2-(5-((2R,3R)-3-amino-2-methylpiperidine-1-carbonyl)-7-methoxy-1-methyl-1H-benzo[d]imidazol-2-yl)-1-cyclopropyl-1H-pyrrolo[2,3-b]pyridin-6-yl)-N-methylmethanesulfonamide]
- IC50: 1730 nM

SMILES: COc1cc(C(=O)N2C[C@H](N)CC[C@@H]2C)cc2nc(-c3cc4ccc(N(C(F)F)S(C)(=O)=O)nc4n3CC3CC3)n(C34CC(C3)C4)c12 [Example 48, N-(2-(5-((2S,5R)-5-amino-2-methylpiperidine-1-carbonyl)-1-(bicyclo[1.1.1]pentan-1-yl)-7-methoxy-1H-benzo[d]imidazol-2-yl)-1-(cyclopropylmethyl)-1H-pyrrolo[2,3-b]pyridin-6-yl)-N-(difluoromethyl) methane sulfonamide]
- IC50: 2130 nM

SMILES: COc1cc(C(=O)N2CCC[C@@H](N)[C@H]2C)cc2nc(-c3cc4ccc(N(C)S(C)(=O)=O)nc4n3C3CC3)n(CC3CC3)c12 [Example 49, N-(2-(5-((2R,3R)-3-amino-2-methylpiperidine-1-carbonyl)-1-(cyclopropylmethyl)-7-methoxy-1H-benzo[d]imidazol-2-yl)-1-cyclopropyl-1H-pyrrolo[2,3-b]pyridin-6-yl)-N-methylmethanesulfonamide]
- IC50: 487 nM

SMILES: COc1cc(C(=O)N2[C@@H]3CC[C@@H](N)[C@H]2CC3)cc2nc(-c3cc4ccc(N(C(F)F)S(C)(=O)=O)nc4n3CC3CC3)n(C3CC3)c12 [Example 50, N-(2-(5-((1R,2R,5R)-2-amino-8-azabicyclo[3.2.1]octane-8-carbonyl)-1-cyclopropyl-7-methoxy-1H-benzo[d]imidazol-2-yl)-1-(cyclopropylmethyl)-1H-pyrrolo [2,3-b]pyridin-6-yl)-N-(difluoromethyl) methanesulfonamide]
- IC50: 145 nM

SMILES: COc1cc(C(=O)N2CCCC(C)(N)C2)cc2nc(-c3cc4ccc(N(C(F)F)S(C)(=O)=O)nc4n3CC3CC3)n(C)c12 (stereo not drawn) [Example 52, N-(2-(5-(3-amino-3-methylpiperidine-1-carbonyl)-7-methoxy-1-methyl-1H-benzo[d]imidazol-2-yl)-1-(cyclopropylmethyl)-1H-pyrrolo [2,3-b]pyridin-6-yl)-N-(difluoromethyl) methanesulfonamide]
- IC50: 12700 nM

Now from value to compound:

- IC50: 300 nM
SMILES: COc1cc(C(=O)N2CC[C@@H](C)[C@@H](N)C2)cc2nc(-c3cc4ccc(N(C5CC5)S(C)(=O)=O)nc4n3CC3CC3)n(C)c12 [Example 34, N-(2-(5-((3R,4R)-3-amino-4-methylpiperidine-1-carbonyl)-7-methoxy-1-methyl-1H-benzo[d]imidazol-2-yl)-1-(cyclopropylmethyl)-1H-pyrrolo [2,3-b]pyridin-6-yl)-N-cyclopropylmethanesulfonamide]

- IC50: 141 nM
SMILES: CCN(c1ccc2cc(-c3nc4cc(C(=O)N5CCC[C@@H](N)[C@H]5C)cc(OC)c4n3C3CC3)n(CC3CC3)c2n1)S(C)(=O)=O [Example 35, N-(2-(5-((2R,3R)-3-amino-2-methylpiperidine-1-carbonyl)-1-cyclopropyl-7-methoxy-1H-benzo[d]imidazol-2-yl)-1-(cyclopropylmethyl)-1H-pyrrolo [2,3-b]pyridin-6-yl)-N-ethylmethanesulfonamide]

- IC50: 235 nM
SMILES: CCN(c1ccc2cc(-c3nc4cc(C(=O)N5CCC[C@@H](N)[C@H]5C)cc(OC)c4n3CC3COC3)n(CC3CC3)c2n1)S(C)(=O)=O [Example 37, N-(2-(5-((2R,3R)-3-amino-2-methylpiperidine-1-carbonyl)-7-methoxy-1-(oxetan-3-ylmethyl)-1H-benzo[d]imidazol-2-yl)-1-(cyclopropylmethyl)-1H-pyrrolo [2,3-b]pyridin-6-yl)-N-ethylmethanesulfonamide]

- IC50: 93.4 nM
SMILES: COc1cc(C(=O)N2C[C@H](N)CC[C@@H]2C)cc2nc(-c3cc4ccc(N(C(F)F)S(C)(=O)=O)nc4n3CC3CC3)n(C)c12 [Example 38, N-(2-(5-((2S,5R)-5-amino-2-methylpiperidine-1-carbonyl)-7-methoxy-1-methyl-1H-benzo[d]imidazol-2-yl)-1-(cyclopropylmethyl)-1H-pyrrolo [2,3-b]pyridin-6-yl)-N-(difluoromethyl) methanesulfonamide]

- IC50: 229 nM
SMILES: CCN(c1ccc2cc(-c3nc4cc(C(=O)N5CCC[C@@H](N)[C@H]5C)cc(OC)c4n3CCOC)n(CC3CC3)c2n1)S(C)(=O)=O [Example 41, N-(2-(5-((2R,3R)-3-amino-2-methylpiperidine-1-carbonyl)-7-methoxy-1-(2-methoxyethyl)-1H-benzo[d]imidazol-2-yl)-1-(cyclopropylmethyl)-1H-pyrrolo [2,3-b]pyridin-6-yl)-N-ethylmethanesulfonamide]

- IC50: 221 nM
SMILES: COc1cc(C(=O)N2C[C@H](N)CC[C@@H]2C)cc2nc(-c3cc4ccc(N(C(F)F)S(C)(=O)=O)nc4n3CC3CC3)n(C3CC3)c12 [Example 42, N-(2-(5-((2S,5R)-5-amino-2-methylpiperidine-1-carbonyl)-1-cyclopropyl-7-methoxy-1H-benzo[d]imidazol-2-yl)-1-(cyclopropylmethyl)-1H-pyrrolo [2,3-b]pyridin-6-yl)-N-(difluoromethyl) methanesulfonamide]

- IC50: 110 nM
SMILES: [2H][C@@]1(N)CCCN(C(=O)c2cc(OC)c3c(c2)nc(-c2cc4ccc(N(C(F)F)S(C)(=O)=O)nc4n2CC2CC2)n3C)C1 [Example 45, (R)-N-(2-(5-(3-aminopiperidine-1-carbonyl-3-d)-7-methoxy-1-methyl-1H-benzo[d]imidazol-2-yl)-1-(cyclopropylmethyl)-1H-pyrrolo[2,3-b]pyridin-6-yl)-N-(difluoromethyl) methanesulfonamide]

- IC50: 141 nM
SMILES: COc1cc(C(=O)N2CC[C@@H](O)[C@@H](N)C2)cc2nc(-c3cc4ccc(N(C(F)F)S(C)(=O)=O)nc4n3CC3CC3)n(C)c12 [Example 51, N-(2-(5-((3S,4R)-3-amino-4-hydroxypiperidine-1-carbonyl)-7-methoxy-1-methyl-1H-benzo[d]imidazol-2-yl)-1-(cyclopropylmethyl)-1H-pyrrolo [2,3-b]pyridin-6-yl)-N-(difluoromethyl) methanesulfonamide]
